A short description of data set [1]: L41 levels in brain nuclear and cytoplasmic fractions. Conditions: mouse, in vivo. On the procedure: Thus, DYRK1A overexpression in the transgenic animals' brains appears to be limited to the cytoplasmic fraction, corresponding to the subcellular distribution of overexpressed DYRK1A (Fig. 7A,B). Accordingly, more L41 is detected in the cytoplasmic fraction from transgenic animals compared with their control littermates.
Nuclear, cytosolic and synaptosomal subcellular fractionation of brain tissue was performed with the Syn-PER™ and ProteoExtract® Tissue Dissociation Buffer Kit and Subcellular Proteome Extraction Kit following the instructions of the manufacturer. Fractions were analysed by SDS-PAGE and WB with specific antibodies.

Another data set has as its system Ts65Dn mice. In words: Novel object recognition (NOR) test in Ts65Dn mice. Format: in vivo, mouse. Particulars: daily i.p. treatment for 19 days. On the procedure: (§1) Behavioural studies were conducted in 12- to 20-week-old male animals. All assessments were scored blind to genotype and treatment, as recommended by the ARRIVE guidelines ([Karp et al., 2015]; [Kilkenny et al., 2010]). […] The final formulation was prepared just prior to use as a 2 mg/ml solution diluted in PEG300/water (50/45), to reach a final DMSO/PEG300/water 5/50/45 (v/v/v) mix. Treated animals received a daily dose (5, 12 or 19 days) of this formulation by i.p. injection of 20 mg/kg/day. Nontreated animals received the same formulation without L41.
(§2) The NOR task is based on the innate tendency of rodents to differentially explore a novel object over a familiar one ([Ennaceur and Delacour, 1988]). Day 1 was a habituation session. Mice freely explored the apparatus, a white circular arena (53 cm diameter) placed in a dimly lit testing room (40 lux). On day 2, the acquisition phase, mice were free to explore two identical objects for 10 min. Mice were then returned to their home cage for a 24 h retention interval. […] Object exploration was manually scored and defined as the orientation of the nose to the object at a distance <1 cm. For the retention phase, the percent of time spent exploring familiar versus novel objects was calculated to assess memory performance.

The next data set concerns the target CLK1 (Mus musculus, UniProt P22518). Description: Recombinant protein kinase assay, CLK1. Format: biochemical.
The next data set has as its system wt mice. Description: Novel object recognition (NOR) test in wt mice. Format: in vivo, mouse. Particulars: 20 mg/kg daily i.p., 5, 12 or 19 days. The protocol:
as §1, §2

Another data set addresses T1, CDK9/cyclin T (Homo sapiens, UniProt P50750).
T1 construct: made in house; host or cells: insect cells
In words: Recombinant protein kinase assay, CDK9/cyclin T. Format: biochemical. Particulars: 15 µM ATP.

For another data set, the target named is T2, DYRK1A (Mus musculus, UniProt Q61214).
T2 construct: DYRK1A was purified from brain extracts by immunoprecipitation; from tissue; host or cells: mouse brain (wt, Tg(Dyrk1a), Ts65Dn)
Description: In vitro kinase activity of DYRK1A immunopurified from mouse brains. Particulars: DYRK1A from untreated wt, Tg(Dyrk1a) and Ts65Dn brains, increasing concentrations. Format: biochemical.

The subject of a further data set is Dp1Yey mice. In words: Novel object recognition (NOR) test in Dp1Yey mice. Particulars: daily i.p. treatment for 19 days. Format: in vivo, mouse. On the procedure: as §1, §2

The record followed here is publication PMC6176987, “Correction of cognitive deficits in mouse models of Down syndrome by a pharmacological inhibitor of DYRK1A” (Disease Models & Mechanisms, 2018).

In general, pIC50 refers to −log10 of the IC50, conventionally taken in molar units.

pIC50: −log10 of the molar value.

T1 sequence (P50750 whole entry): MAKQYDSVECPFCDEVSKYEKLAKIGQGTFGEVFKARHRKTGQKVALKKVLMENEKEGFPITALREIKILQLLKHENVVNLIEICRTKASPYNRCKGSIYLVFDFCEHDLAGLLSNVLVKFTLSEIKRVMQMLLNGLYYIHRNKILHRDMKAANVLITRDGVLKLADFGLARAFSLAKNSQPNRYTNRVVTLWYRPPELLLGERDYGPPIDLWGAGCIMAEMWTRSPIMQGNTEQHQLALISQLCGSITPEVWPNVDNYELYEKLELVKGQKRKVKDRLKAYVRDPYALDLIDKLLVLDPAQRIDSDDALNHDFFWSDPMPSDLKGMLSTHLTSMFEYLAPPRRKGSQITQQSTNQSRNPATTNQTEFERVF
T1 sequence (O60563 whole entry partner): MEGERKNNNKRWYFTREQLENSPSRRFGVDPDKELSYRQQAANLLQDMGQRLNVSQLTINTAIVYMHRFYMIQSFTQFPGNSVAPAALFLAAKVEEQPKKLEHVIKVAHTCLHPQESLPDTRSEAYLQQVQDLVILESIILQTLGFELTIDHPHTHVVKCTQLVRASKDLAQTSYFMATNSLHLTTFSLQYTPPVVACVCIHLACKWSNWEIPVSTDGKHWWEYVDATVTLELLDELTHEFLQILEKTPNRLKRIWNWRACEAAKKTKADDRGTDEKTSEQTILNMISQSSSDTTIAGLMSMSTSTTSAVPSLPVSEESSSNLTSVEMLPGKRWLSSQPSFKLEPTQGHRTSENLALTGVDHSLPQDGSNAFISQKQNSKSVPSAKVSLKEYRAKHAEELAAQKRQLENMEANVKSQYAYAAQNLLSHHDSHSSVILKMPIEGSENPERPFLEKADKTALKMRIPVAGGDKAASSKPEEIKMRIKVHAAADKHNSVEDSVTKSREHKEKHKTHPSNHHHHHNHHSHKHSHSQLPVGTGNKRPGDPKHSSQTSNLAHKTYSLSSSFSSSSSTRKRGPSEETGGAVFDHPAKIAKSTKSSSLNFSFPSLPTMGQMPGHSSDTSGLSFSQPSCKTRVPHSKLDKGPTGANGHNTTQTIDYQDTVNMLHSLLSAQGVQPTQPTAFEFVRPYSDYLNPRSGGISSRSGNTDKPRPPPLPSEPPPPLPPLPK
Chain of CLK1 (P22518 whole entry): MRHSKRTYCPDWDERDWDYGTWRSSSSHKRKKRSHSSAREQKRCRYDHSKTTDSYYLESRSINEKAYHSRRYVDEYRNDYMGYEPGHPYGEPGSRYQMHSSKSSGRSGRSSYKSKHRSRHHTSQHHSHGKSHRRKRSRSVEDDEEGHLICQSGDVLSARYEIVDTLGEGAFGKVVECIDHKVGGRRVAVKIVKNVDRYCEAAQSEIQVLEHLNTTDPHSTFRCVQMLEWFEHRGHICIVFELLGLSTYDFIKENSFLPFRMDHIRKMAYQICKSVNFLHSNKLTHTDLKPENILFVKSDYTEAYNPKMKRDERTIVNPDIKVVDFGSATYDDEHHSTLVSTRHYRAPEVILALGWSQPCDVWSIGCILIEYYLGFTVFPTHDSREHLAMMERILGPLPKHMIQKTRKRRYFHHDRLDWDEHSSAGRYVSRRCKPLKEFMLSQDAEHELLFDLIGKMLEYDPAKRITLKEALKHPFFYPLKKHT

For `O=C1NC(Nc2ccccc2)=N/C1=C\c1ccc2c(c1)OCO2` [L41], the “L41 level in brain cytoplasmic fraction, Tg(Dyrk1a) vs wt” value in data set [1] is given as “significantly increased”. Also, the “L41 levels in brain nuclear fractions, Tg(Dyrk1a) vs wt” value in data set [1] is recorded as “identical L41 levels”. The NOR test outcome in the data set with Ts65Dn mice and in the data set with Dp1Yey mice was “rescue” in each case. For the same compound, the pIC50 on CLK1 is 7.64; on CDK9/cyclin T, under 5.00. In addition, in the data set with wt mice, the “Effect on NOR performance of wt animals” value is “no effect”. The “In vitro inhibition of brain DYRK1A” value at DYRK1A was “almost fully inhibited”.
